Source: US20230024302A1, “2,3,5-TRISUBSTITUTED PYRAZOLO[1,5-A]PYRIMIDINE COMPOUNDS” (Arcus Biosciences, Inc., priority 2019, published 2023)
Where two headings read alike, the source gives them in different places.

Experiments:
[1] = target: T1, PI3Kγ (p120γ) (Homo sapiens, UniProt P48736); assay: Inhibition of PI3K kinase activity (ADP Glo), PI3Kγ; conditions: read-out: biochemical potency (PI3Kγ IC50)
T1 construct: purchased Promega V1761
In short: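 IC50 values come from a 4-parameter nonlinear fit of ADP-Glo luminescence, which measures ADP produced as PIP2 is phosphorylated to PIP3. The p120γ enzyme (2× stock 8 nM) sat with compound 1 h at rt before substrate (2× stocks: 50 μM ATP, 0.1 mg/ml PIP2) was added. Phosphorylation then proceeded 60 min at rt.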

[2] = target: T2, PI3Kγ (Homo sapiens, UniProt P48736); assay: PI3Kγ cellular assay in THP-1 cells (AKT pS473 AlphaLISA); format: cell-based
T2 construct: host or cells: THP-1
T2 sequence (P48736 whole entry): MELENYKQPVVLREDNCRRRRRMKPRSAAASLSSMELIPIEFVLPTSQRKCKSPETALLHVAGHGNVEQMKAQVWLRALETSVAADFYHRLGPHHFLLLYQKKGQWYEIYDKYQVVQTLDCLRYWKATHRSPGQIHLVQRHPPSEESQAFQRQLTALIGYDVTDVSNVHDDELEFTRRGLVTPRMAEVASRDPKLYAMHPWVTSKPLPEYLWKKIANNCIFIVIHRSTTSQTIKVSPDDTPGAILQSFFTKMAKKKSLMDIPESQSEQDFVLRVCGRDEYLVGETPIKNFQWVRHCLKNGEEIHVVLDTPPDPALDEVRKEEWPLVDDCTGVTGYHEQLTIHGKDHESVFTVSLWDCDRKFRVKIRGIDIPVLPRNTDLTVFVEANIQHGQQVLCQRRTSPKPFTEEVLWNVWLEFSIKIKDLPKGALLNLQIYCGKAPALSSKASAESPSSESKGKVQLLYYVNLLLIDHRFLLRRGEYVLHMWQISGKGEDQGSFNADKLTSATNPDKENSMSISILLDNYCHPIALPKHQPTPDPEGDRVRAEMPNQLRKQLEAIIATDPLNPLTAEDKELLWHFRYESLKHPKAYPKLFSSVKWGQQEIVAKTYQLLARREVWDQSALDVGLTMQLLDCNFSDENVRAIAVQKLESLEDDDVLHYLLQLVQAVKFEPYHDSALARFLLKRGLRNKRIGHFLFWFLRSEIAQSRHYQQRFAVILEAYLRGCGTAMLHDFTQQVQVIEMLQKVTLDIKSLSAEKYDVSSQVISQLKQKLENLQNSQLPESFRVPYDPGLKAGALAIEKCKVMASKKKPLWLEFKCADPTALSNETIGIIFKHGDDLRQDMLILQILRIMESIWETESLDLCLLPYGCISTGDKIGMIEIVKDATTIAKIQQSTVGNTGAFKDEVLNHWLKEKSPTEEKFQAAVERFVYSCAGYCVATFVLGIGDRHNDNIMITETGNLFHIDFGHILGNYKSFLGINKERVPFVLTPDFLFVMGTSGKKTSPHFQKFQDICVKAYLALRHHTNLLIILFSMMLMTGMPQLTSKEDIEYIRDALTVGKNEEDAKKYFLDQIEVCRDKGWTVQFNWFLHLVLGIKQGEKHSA
In short: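 Endogenous AKT S473 phosphorylation, detected by AlphaLISA in lysates, serves as the PI3Kγ activity read-out in stimulated, serum-starved THP-1 cells (1.8×10^5/well).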

[3] = Table 6, rhMCP-1 stimulated AKT pS473, read-out: cellular potency (PI3Kγ IC50)
[4] = Table 7, rhMCP-1 stimulated AKT pS473, read-out: cellular potency (PI3Kγ IC50)

T1 sequence (P48736 whole entry): as above

Row | SMILES | IC50 ([1]; Table 6, p120γ) [nM] | IC50 [2, 3] [nM] | IC50 ([1]; Table 7, p120γ) [nM] | IC50 [2, 4] [nM]
1 | CC(C)NS(=O)(=O)c1cc(-c2ccn3nc(N)c(C(=O)NC4CC4)c3n2)cc2c1C(=O)N([C@@H](C)C1CC1)C2 [Example 446] | < 100 | 100 to 1000 |  | 
2 | C[C@@H](C1CC1)N1Cc2cc(-c3ccn4nc(N)c(C(=O)NC5CC5)c4n3)cc(S(C)(=N)=O)c2C1=O (some centres unmarked) [Example 447] | < 100 | 100 to 1000 |  | 
3 | C[C@@H](C1CC1)N1Cc2cc(-c3ccn4nc(N)c(C(=O)N[C@H]5CC[C@@](C)(O)CC5)c4n3)cc(S(C)(=N)=O)c2C1=O (some centres unmarked) [Example 448] | < 100 | 100 to 1000 |  | 
4 | CC[C@H](N1Cc2cc(-c3ccn4nc(N)c(C(=O)NC5CC5)c4n3)cc(Cl)c2C1=O)C(F)(F)F [Example 449] | < 100 | 100 to 1000 |  | 
5 | CCc1cc(-c2ccn3nc(N)c(C(=O)NC4CC4)c3n2)cc2c1C(=O)N([C@@H](C)C1CC1)C2 [Example 450] | < 100 | 100 to 1000 |  | 

Second part, the compound after the results:

Row | IC50 ([1]; Table 6, p120γ) [nM] | IC50 [2, 3] [nM] | IC50 ([1]; Table 7, p120γ) [nM] | IC50 [2, 4] [nM] | SMILES
6 | < 100 | 100 to 1000 |  |  | C[C@@H](C1CC1)N1Cc2cc(-c3ccn4nc(N)c(C(=O)NC5CC5)c4n3)cc(C#N)c2C1=O [Example 451]
7 | < 100 | 100 to 1000 |  |  | C[C@@H](C1CC1)N1Cc2cc(-c3ccn4nc(N)c(C(=O)Nc5cccnc5)c4n3)cc(C3CC3)c2C1=O [Example 452]
8 | < 100 | 100 to 1000 |  |  | C[C@@H](C1CC1)N1Cc2cc(-c3ccn4nc(N)c(C(=O)N[C@@H](CO)C5CC5)c4n3)cc(C(C)(C)O)c2C1=O [Example 453]
9 |  |  | < 100 | > 1000 | C[C@@H](C1CC1)N1Cc2cc(-c3ccn4nc(N)c(C(=O)N[C@@H](CO)C5CC5)c4n3)cnc2C1=O [Example 454]
10 |  |  | < 100 | 100 to 1000 | C[C@@H](C1CC1)N1Cc2cc(-c3ccn4nc(N)c(C(=O)NC5CC5)c4n3)cnc2C1=O [Example 455]
